Test results reported in ChEMBL document CHEMBL1156748, “Incorporation of water-solubilizing groups in pyrazolopyrimidine mTOR inhibitors: discovery of highly potent and selective analogs with improved human microsomal stability” (Bioorg Med Chem Lett, 2009).
Activity calls are given as the source filed them. The rule behind the calls is not given here.

Experiments:
[1] = Antiproliferative activity against PTEN deficient human MDA468 cells after 3 days by MTS assay; format: functional, cell-based; details: MDA-MB-468, 72 h
[2] = tested on: LNCaP; assay: Antiproliferative activity against PTEN deficient human LNCAP cells after 3 days by MTS assay; format: functional, cell-based; details: 72 h
[3] = target: Serine/threonine-protein kinase mTOR (Homo sapiens, UniProt P42345); assay: Inhibition of human FLAG-tagged mTOR expressed in HEK293 cells after 2 hrs by DELFIA; format: cell-based
[4] = target: Phosphatidylinositol 4,5-bisphosphate 3-kinase catalytic subunit alpha isoform (Homo sapiens, UniProt P42336); assay: Binding affinity to PI3Kalpha by fluorescence polarization assay
Phosphatidylinositol 4,5-bisphosphate 3-kinase catalytic subunit alpha isoform, sequence (P42336 whole entry, canonical isoform): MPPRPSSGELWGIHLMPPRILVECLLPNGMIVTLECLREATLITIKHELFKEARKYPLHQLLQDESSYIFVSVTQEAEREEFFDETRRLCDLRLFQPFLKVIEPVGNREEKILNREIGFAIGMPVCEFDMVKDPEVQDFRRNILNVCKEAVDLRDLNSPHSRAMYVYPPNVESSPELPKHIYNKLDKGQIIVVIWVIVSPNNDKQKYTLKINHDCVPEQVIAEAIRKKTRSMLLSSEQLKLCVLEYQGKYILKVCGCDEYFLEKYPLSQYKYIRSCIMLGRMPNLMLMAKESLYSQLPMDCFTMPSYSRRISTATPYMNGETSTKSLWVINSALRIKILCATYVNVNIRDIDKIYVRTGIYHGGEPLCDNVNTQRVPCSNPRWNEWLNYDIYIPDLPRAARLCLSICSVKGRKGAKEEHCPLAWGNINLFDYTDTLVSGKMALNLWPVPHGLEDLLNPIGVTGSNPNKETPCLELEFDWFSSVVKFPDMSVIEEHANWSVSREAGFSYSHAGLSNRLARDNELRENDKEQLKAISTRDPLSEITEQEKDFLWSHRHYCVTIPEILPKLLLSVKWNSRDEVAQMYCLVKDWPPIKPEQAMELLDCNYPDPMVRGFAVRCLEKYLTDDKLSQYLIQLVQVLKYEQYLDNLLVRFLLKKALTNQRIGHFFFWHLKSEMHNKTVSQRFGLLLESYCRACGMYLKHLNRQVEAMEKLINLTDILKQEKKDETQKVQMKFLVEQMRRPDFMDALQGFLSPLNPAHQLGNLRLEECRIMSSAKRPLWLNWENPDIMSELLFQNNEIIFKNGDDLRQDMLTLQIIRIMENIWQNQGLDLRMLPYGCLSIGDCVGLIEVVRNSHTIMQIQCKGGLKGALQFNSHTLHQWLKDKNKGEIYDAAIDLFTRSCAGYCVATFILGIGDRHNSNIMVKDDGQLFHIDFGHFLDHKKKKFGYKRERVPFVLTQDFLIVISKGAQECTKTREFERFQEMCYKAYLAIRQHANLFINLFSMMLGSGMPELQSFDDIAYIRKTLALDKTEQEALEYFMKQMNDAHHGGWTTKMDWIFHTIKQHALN

[5] = Selectivity ratio, IC50 for PI3Kalpha to IC50 for human FLAG-tagged mTOR
[6] = Metabolic stability in human microsomes assessed as half life; format: ADME, Microsome
[7] = Solubility at pH 3; format: physicochemical; details: buffer
[8] = target: Phosphatidylinositol 4,5-bisphosphate 3-kinase catalytic subunit beta isoform (Homo sapiens, UniProt P42338); assay: Inhibition of PI3Kbeta
Phosphatidylinositol 4,5-bisphosphate 3-kinase catalytic subunit beta isoform, sequence (P42338 whole entry, canonical isoform): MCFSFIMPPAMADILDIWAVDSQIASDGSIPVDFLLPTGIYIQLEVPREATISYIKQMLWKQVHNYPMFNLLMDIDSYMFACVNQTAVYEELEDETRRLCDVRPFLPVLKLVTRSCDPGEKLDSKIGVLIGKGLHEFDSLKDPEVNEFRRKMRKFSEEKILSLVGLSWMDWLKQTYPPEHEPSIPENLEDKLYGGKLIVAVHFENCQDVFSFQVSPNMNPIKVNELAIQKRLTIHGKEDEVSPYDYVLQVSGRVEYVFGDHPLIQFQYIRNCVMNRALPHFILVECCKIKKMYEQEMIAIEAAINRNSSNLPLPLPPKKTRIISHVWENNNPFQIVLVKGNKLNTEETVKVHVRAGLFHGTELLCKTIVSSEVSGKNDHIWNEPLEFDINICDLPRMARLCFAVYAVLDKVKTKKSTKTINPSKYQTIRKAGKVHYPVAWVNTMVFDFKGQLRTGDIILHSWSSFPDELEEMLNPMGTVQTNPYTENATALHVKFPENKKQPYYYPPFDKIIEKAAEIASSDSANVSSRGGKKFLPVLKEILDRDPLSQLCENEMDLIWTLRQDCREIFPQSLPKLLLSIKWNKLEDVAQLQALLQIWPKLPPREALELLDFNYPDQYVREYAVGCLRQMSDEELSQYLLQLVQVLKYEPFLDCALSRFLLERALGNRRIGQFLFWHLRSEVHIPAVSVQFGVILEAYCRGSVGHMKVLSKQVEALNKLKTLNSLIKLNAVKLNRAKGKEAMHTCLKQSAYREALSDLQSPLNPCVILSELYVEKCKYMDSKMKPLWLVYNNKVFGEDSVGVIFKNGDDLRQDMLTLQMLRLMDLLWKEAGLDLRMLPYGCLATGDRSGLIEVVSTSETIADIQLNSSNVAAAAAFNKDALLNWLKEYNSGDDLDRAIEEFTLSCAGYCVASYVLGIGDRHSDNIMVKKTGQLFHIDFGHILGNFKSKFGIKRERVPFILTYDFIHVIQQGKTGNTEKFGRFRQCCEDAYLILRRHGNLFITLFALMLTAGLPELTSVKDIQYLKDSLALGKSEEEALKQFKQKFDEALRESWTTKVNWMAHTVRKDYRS

[9] = target: Phosphatidylinositol 4,5-bisphosphate 3-kinase catalytic subunit gamma isoform (Homo sapiens, UniProt P48736); assay: Inhibition of PI3Kgamma
Phosphatidylinositol 4,5-bisphosphate 3-kinase catalytic subunit gamma isoform, sequence (P48736 whole entry, canonical isoform): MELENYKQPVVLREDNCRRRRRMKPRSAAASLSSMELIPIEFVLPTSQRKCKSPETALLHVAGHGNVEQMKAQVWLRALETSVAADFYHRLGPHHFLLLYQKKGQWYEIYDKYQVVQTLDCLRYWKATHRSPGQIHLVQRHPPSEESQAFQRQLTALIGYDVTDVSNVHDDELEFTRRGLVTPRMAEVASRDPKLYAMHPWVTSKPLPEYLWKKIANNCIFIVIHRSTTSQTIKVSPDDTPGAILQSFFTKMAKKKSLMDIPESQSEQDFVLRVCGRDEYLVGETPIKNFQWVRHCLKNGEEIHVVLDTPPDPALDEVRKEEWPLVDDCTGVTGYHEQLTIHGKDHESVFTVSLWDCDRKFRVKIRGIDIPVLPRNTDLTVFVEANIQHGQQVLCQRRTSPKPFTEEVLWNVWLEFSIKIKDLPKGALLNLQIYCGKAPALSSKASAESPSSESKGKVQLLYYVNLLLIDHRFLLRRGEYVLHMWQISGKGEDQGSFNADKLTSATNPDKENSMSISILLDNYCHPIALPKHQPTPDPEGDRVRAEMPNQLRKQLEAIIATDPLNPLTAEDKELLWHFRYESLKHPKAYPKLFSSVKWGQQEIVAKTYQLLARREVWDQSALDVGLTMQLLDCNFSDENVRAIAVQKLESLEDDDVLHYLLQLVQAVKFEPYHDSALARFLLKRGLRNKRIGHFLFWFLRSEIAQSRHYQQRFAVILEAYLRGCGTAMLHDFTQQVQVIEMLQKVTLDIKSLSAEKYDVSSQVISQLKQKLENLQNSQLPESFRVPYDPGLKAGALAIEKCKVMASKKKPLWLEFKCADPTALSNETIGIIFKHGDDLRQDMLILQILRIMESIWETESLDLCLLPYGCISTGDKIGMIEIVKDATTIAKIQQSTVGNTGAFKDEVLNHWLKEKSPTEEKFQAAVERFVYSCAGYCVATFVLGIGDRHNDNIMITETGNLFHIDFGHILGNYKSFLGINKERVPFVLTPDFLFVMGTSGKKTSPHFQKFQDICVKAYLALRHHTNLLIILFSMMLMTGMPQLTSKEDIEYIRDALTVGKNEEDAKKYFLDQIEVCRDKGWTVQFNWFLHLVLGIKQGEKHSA

[10] = Clearance in nude mouse at 5 mg/kg, iv; format: ADME, organism-based; design: dose 5 mg/kg, route intravenous; details: in vivo
[11] = Volume of distribution at steady state in nude mouse at 5 mg/kg, iv; format: ADME, organism-based; design: dose 5 mg/kg, route intravenous; details: in vivo, read-out: Vdss
[12] = Half life in nude mouse at 5 mg/kg, iv; format: ADME, organism-based; design: dose 5 mg/kg, route intravenous; details: in vivo
[13] = Plasma concentration in nude mouse at 25 mg/kg, iv after 8 hrs; format: ADME, organism-based; design: dose 25 mg/kg, route intravenous
[14] = AUC in nude mouse at 5 mg/kg, iv; format: ADME, organism-based; design: dose 5 mg/kg, route intravenous; details: plasma
[15] = tested on: MDA-MB-361; assay: Antitumor activity against human MDA-MB-361 cells xenografted in nude mouse assessed as inhibition of tumor growth at 20 mg/kg, iv every 5 days for 21 days; format: functional, organism-based; design: dose 20 mg/kg
[16] = Metabolic stability in mouse microsomes assessed as half life; format: ADME, Microsome
[17] = tested on: Mus musculus; assay: Inhibition of TORC1 in human MDA-MB-361 cells xenografted nude mouse assessed as p70-S6K level at 25 mg/kg, iv; format: functional, organism-based; design: dose 25 mg/kg
[18] = tested on: Mus musculus; assay: Inhibition of TORC2 in human MDA-MB-361 cells xenografted nude mouse assessed as p-AKT S473 level at 25 mg/kg, iv; format: functional, organism-based; design: dose 25 mg/kg
[19] = tested on: Mus musculus; assay: Antitumor activity against human MDA-MB-361 cells xenografted in nude mouse assessed as inhibition of tumor growth at 10 to 25 mg/kg, iv administered daily; format: functional, organism-based
[20] = tested on: Mus musculus; assay: Toxicity in nude mouse xenografted with human MDA-MB-361 cells at 10 to 25 mg/kg, iv administered daily; format: organism-based; design: dose 10-25 mg/kg, route intravenous; details: in vivo
[21] = tested on: MDA-MB-361; assay: Inhibition of mTORC2 in human MDA-MB-361 cells assessed as phosphorylated AKT S473 level at 25 nM

| SMILES | IC50 [1] [nM] | IC50 [2] [nM] | IC50 [3] [nM] | IC50 [4] [nM] | Ratio IC50 [5] | half-life [6] [min] | also measured |
| --- | --- | --- | --- | --- | --- | --- | --- |
| CCn1ncc2c(N3CC4CCC(C3)O4)nc(-c3ccc(NC(=O)Nc4ccc(NCCN(C)C)cc4)cc3)nc21 | 7 | 2.8 | 1.7 | 207 | 122 | 14 |  |
| CCn1ncc2c(N3CC4CCC(C3)O4)nc(-c3ccc(NC(=O)Nc4ccc(CO)cc4)cc3)nc21 | < 0.7 | < 0.7 | 0.1 |  | 335 | 11 |  |
| CCn1ncc2c(N3CC4CCC(C3)O4)nc(-c3ccc(NC(=O)Nc4ccc(N5CCCC5)cc4)cc3)nc21 | 120 | 55 |  |  | 243 | 5 |  |
| CN(C)CCn1ncc2c(N3CC4CCC(C3)O4)nc(-c3ccc(NC(=O)Nc4cccnc4)cc3)nc21 | 220 | 50 |  |  | 89 |  |  |
| CCn1ncc2c(N3CC4CCC(C3)O4)nc(-c3ccc(NC(=O)NCCN(C)C)cc3)nc21 | 1250 | 350 | 51 |  | 16 |  |  |
| CCn1ncc2c(N3CC4CCC(C3)O4)nc(-c3ccc(NC(=O)Nc4ccc(N(C)C)nc4)cc3)nc21 | 80 | 6 |  | 282 | 282 |  |  |
| CCn1ncc2c(N3CC4CCC(C3)O4)nc(-c3ccc(NC(=O)Nc4ccc(CCO)cc4)cc3)nc21 | < 0.7 | < 0.7 | 0.1 |  | 570 | 10 |  |
| CCn1ncc2c(N3CC4CCC(C3)O4)nc(-c3ccc(NC(=O)Nc4ccc(OCCN5CCOCC5)nc4)cc3)nc21 | 0.8 | < 0.7 | 1 |  | 383 |  | solubility [7]: > 100 µg/mL |
| CCn1ncc2c(N3CC4CCC(C3)O4)nc(-c3ccc(NC(=O)Nc4ccc(NC)nc4)cc3)nc21 | 200 | 17 |  |  | 302 |  |  |
| CCn1ncc2c(N3CC4CCC(C3)O4)nc(-c3ccc(NC(=O)Nc4ccc(CN(C)C)cc4)cc3)nc21 | 30 | 7 | 1.1 | 263 | 239 | 29 |  |
| CCn1ncc2c(N3CC4CCC(C3)O4)nc(-c3ccc(NC(=O)Nc4ccc(N5CCOCC5)cc4)cc3)nc21 | < 0.7 | < 0.7 | 0.2 |  | 972 | 6 |  |
| CCn1ncc2c(N3CC4CCC(C3)O4)nc(-c3ccc(NC(=O)Nc4ccc(N5CCOCC5)nc4)cc3)nc21 | 8 | 0.8 | 0.3 |  | 7300 |  |  |
| CCNC(=O)Nc1ccc(-c2nc(N3CC4CCC(C3)O4)c3cnn(CCN(C)C)c3n2)cc1 | 1800 | 280 |  |  | 240 |  |  |
| CCn1ncc2c(N3CC4CCC(C3)O4)nc(-c3ccc(NC(=O)Nc4ccccc4)cc3)nc21 | 12 | 0.8 |  | 66 | 212 | 5 |  |
| CCn1ncc2c(N3CC4CCC(C3)O4)nc(-c3ccc(NC(=O)Nc4ccc(OCCN(C)C)cc4)cc3)nc21 | 8 | < 0.7 | 0.8 | 136 | 172 | > 30 |  |
| CCn1ncc2c(N3CC4CCC(C3)O4)nc(-c3ccc(NC(=O)Nc4cccnc4)cc3)nc21 | 1.2 | < 0.8 | 0.1 | 148 | 1120 | 4 |  |
| CN1CCN(c2ccc(NC(=O)Nc3ccc(-c4nc(N5CC6CCC(C5)O6)c5cnn(CC(F)(F)F)c5n4)cc3)cc2)CC1 | 1.5 | < 0.8 | 0.6 | 150 | 237 | 24 | IC50 [8]: > 10000 nM; IC50 [9]: > 10000 nM; clearance [10]: 7 mL/min/kg; Vd [11]: 1.2 L/kg; half-life [12]: 174 min; concentration at 8 h [13]: 2500 ng/mL; AUC [14]: 12500 ng·h/mL; Activity [15]: Active; half-life [16]: > 30 min; Activity [17]: Active; Activity [18]: Active; Activity [19]: Active; Activity [20]: Non-toxic; Activity [21]: Active |
| O=C(Nc1ccc(-c2nc(N3CC4CCC(C3)O4)c3cnn(CC(F)(F)F)c3n2)cc1)Nc1ccc(N2CCNCC2)cc1 | 1 | < 0.8 | 0.2 | 76 | 318 |  |  |
| CCn1ncc2c(N3CC4CCC(C3)O4)nc(-c3ccc(NC(=O)Nc4ccc(CN5CCN(C)CC5)cc4)cc3)nc21 | 0.8 | < 0.8 | 0.7 | 320 | 451 | > 30 |  |
| CCn1ncc2c(N3CC4CCC(C3)O4)nc(-c3ccc(NC(=O)Nc4ccc(CN)cc4)cc3)nc21 | < 0.8 | < 0.8 | 0.2 | 21 | 95 | > 30 |  |
| CCn1ncc2c(N3CC4CCC(C3)O4)nc(-c3ccc(NC(=O)Nc4ccc(C(=O)NN(C)C)cc4)cc3)nc21 | < 0.7 | < 0.7 | 0.3 |  | 350 | 23 |  |
| CCn1ncc2c(N3CC4CCC(C3)O4)nc(-c3ccc(NC(=O)Nc4ccc(C(=O)NN5CCCC5)cc4)cc3)nc21 | 4 | < 0.7 | 0.2 |  | 586 | > 30 |  |
| CCNC(=O)Nc1ccc(-c2nc(N3CC4CCC(C3)O4)c3cnn(CC)c3n2)cc1 | 80 | 16 | 0.6 |  | 2230 |  |  |
| CCn1ncc2c(N3CC4CCC(C3)O4)nc(-c3ccc(NC(=O)Nc4ccc(N5CCN(C)CC5)nc4)cc3)nc21 | 0.8 | < 0.7 | 0.7 |  | 275 | > 30 | solubility [7]: > 100 µg/mL |
| CCn1ncc2c(N3CC4CCC(C3)O4)nc(-c3ccc(NC(=O)Nc4ccc(N(C)CCN(C)C)cc4)cc3)nc21 | 0.8 | 0.8 | 0.9 | 256 | 295 | 14 |  |
| CCn1ncc2c(N3CC4CCC(C3)O4)nc(-c3ccc(NC(=O)Nc4ccc(N5CCN(C)CC5)cc4)cc3)nc21 | < 0.7 | < 0.7 | 0.3 | 51 | 188 | > 30 |  |
